Non-standard residues stand in square brackets, D forms with d. Residues, ends and D or L forms follow the SMILES beside them. *: point of attachment. Sta = CC(C)C[C@H](N)[C@@H](O)CC(=O)O; Isovaleryl = CC(C)CC(=O)*; Cbz = O=C(OCc1ccccc1)*; CH2F = FC*
Experiments:
MDA-MB-231 cells = assay: Transwell invasion assay of MDA-MB-231 breast cancer cells; assay type: cell-based; conditions: for invasion of MDA-MB-231 cells (in words): cathepsin inhibitors vs cells not treated with inhibitors
Protocol: The invasion assay was performed by using the transwell insert (BD FALCON, Bedford, USA) equipped with a 8 μm pore-sized filter. An upper part of the transwell insert filter was coated with 20 μl of matrigel (1 mg/ml) while a bottom part of the same was coated with 30 μl of type I collagen (0.5 mg/ml). The MDA-MB-231 cells (5×10^5 cells/100 μl) were added to the insert chamber, and then, each inhibitor was also added thereto. To induce invasion of the cells, a medium supplemented with 5% FBS was added to each well of the bottom chamber to allow a reaction at a temperature of 37° C. in a cell incubator. 18 hours later, the cells remained after removing the solution in the insert chamber were removed by using a cotton swab, whereas cells at the bottom of the membrane were fixed with methanol and stained with hematoxylin and eosin. The cells present at the membrane were observed through a microscope, and the number of the cells was counted in the selected 5 fields at the resolution of 200×.
According to the same manner as in Experimental Example 7, inhibitory effects of the amidopyridinol derivatives synthesized in Examples above on invasion of breast cancer cells, e.g., MDA-MB-231, were reviewed. Here, to compare with, inhibitory effects of aminopyridinol derivatives, e.g., 6-amino-2,4,5-trimethylpyridine-3-ol (BJ-1101) and 6-diphenylamino-2,4,5-trimethylpyridine-3-ol (BJ-1201), on invasion of breast cancer cells, e.g., MDA-MB-231, were reviewed.

HT-29 cells / U937 cells = assay: TNF-α-induced adhesion of HT-29 intestinal epithelial cells and U937 mononuclear cells; assay type: cell-based, human; conditions: 1 μM, pre-treated 1 hour, TNF-α 10 ng/ml; for inhibition at 1 µM: Homo sapiens, read-out: Inhibitory rates (%)
Protocol: HT-29 cells were cultured in a 24-well plate at a concentration of […] cells/cm^2, and meanwhile, amidopyridinol compounds 8a to 8z were pre-treated for 1 hour at each concentration in a serum-free medium supplemented only with 1% PS. Next, 10 ng/ml of TNF-α was treated therewith to allow a reaction at a temperature of 37° C. for 3 hours. After the completion of the reaction, the medium of the HT-29 cells was removed, and then, the HT-29 cells were washed with PBS once. Afterwards, U937 cells, which were treated and reacted with 10 μg/mL of BCECF-AM at a temperature of 37° C. for 30 minutes, were allowed to react with the HT-29 cells at temperature of 37° C. for 1 hour. Then, to remove U937 cells that were not adhered to the HT-29 cells, the reacted cells were washed with PBS twice. In terms of cell dissolution, 0.1% Triton X-100 in 0.1M Tris was allowed to react with the cells for 30 minutes at room temperature, and then, the cells were subjected to quantify by measuring fluorescence thereof using the Fluostar optima microplate reader (BMG Labtechnologies, Germany).

[1] = 1 μM, MDA-MB-231 invasion, 5% FBS, 18 hours

CCCNC(=O)[C@H]1O[C@@H]1C(=O)N[C@H](C(=O)N1CCC[C@H]1C(=O)OC)[C@@H](C)CC [CA-074 Me]
Inhibition rates (%) (MDA-MB-231 cells; 1 nM, MDA-MB-231 invasion, 5% FBS, 18 hours): 19.73 ± 2.31 %
Inhibition rates (%) (MDA-MB-231 cells; 5 nM, MDA-MB-231 invasion, 5% FBS, 18 hours): 34.26 ± 2.30 %
Inhibition rates (%) (MDA-MB-231 cells; 25 nM, MDA-MB-231 invasion, 5% FBS, 18 hours): 44.45 ± 1.43 %
invasion of MDA-MB-231 cells (in words) (MDA-MB-231 cells): decreased invasion of the cells

Cc1nc(NC(=O)c2cccc(O)c2)c(C)c(C)c1O [Compound 8v, 3-hydroxy-N-(5-hydroxy-3,4,6-trimethylpyridine-2-yl)benzamide]
inhibition at 1 µM (HT-29 cells / U937 cells): 54.1%

Cc1nc(NC(=O)CC(C)CC(C)(C)C)c(C)c(C)c1O (stereo not shown) [Compound 8w, N-(5-hydroxy-3,4,6-trimethylpyridine-2-yl)-3,5,5-trimethylhexanamide]
inhibition at 1 µM (HT-29 cells / U937 cells): 54.5%

Cc1nc(NC(=O)Cc2ccc(Cl)cc2)c(C)c(C)c1O [Compound 8x, 2-(4-chlorophenyl)-N-(5-hydroxy-3,4,6-trimethylpyridine-2-yl)acetamide]
inhibition at 1 µM (HT-29 cells / U937 cells): 41.5%

Cc1nc(NC(=O)C(Cl)Cl)c(C)c(C)c1O [Compound 8y, 2,2-dichloro-N-(5-hydroxy-3,4,6-trimethylpyridine-2-yl)acetamide]
inhibition at 1 µM (HT-29 cells / U937 cells): 60.6%

Cc1nc(NC(=O)C=Cc2ccccc2)c(C)c(C)c1O [Compound 8z, N-(5-hydroxy-3,4,6-trimethylpyridine-2-yl)cinnamide]
Inhibitory rates (%) (HT-29 cells / U937 cells): 25.2%

CC(C)(F)C[C@H](N[C@@H](c1ccc(-c2ccc(S(C)(=O)=O)cc2)cc1)C(F)(F)F)C(=O)NC1(C#N)CC1 [Odanacatib]
inhibition at 0.04 µM (MDA-MB-231 cells; Homo sapiens, 0.04 μM, MDA-MB-231 invasion, 5% FBS, 18 hours, read-out: Inhibition rates (%)): 14.9 ± 4.14%
inhibition at 0.2 µM (MDA-MB-231 cells; Homo sapiens, 0.2 μM, MDA-MB-231 invasion, 5% FBS, 18 hours, read-out: Inhibition rates (%)): 19.9 ± 3.77%
inhibition at 1 µM (MDA-MB-231 cells; Homo sapiens, 1 μM, MDA-MB-231 invasion, 5% FBS, 18 hours, read-out: Inhibition rates (%)): 22.3 ± 3.7%

CC(C)CC(=O)N[C@H](C(=O)N[C@H](C(=O)N[C@@H](CC(C)C)[C@@H](O)CC(=O)N[C@@H](C)C(=O)N[C@@H](CC(C)C)[C@@H](O)CC(=O)O)C(C)C)C(C)C [Pepstatin A] (Isovaleryl-VV[Sta]A[Sta]-OH)
Inhibition rates (%) (MDA-MB-231 cells; [1]): 3.42 ± 0.42%
Inhibition rates (%) (MDA-MB-231 cells; 5 μM, MDA-MB-231 invasion, 5% FBS, 18 hours): 4.04 ± 0.33%
Inhibition rates (%) (MDA-MB-231 cells; 25 μM, MDA-MB-231 invasion, 5% FBS, 18 hours): 5.54 ± 0.77%

O=C(NC(Cc1ccccc1)C(=O)NC(Cc1ccccc1)C(=O)CF)OCc1ccccc1 (stereo not drawn) [Z-FF-FMK] (Cbz-Phe-Phe-CH2F; configuration not given here)
Inhibition rates (%) (MDA-MB-231 cells; 0.04 μM, MDA-MB-231 invasion, 5% FBS, 18 hours): 3.42 ± 2.08%
Inhibition rates (%) (MDA-MB-231 cells; 0.2 μM, MDA-MB-231 invasion, 5% FBS, 18 hours): 6.97 ± 2.35%
Inhibition rates (%) (MDA-MB-231 cells; [1]): 10.16 ± 2.16 %

CC(C)C[C@H](NC(=O)[C@H](Cc1ccccc1)NC(=O)OCc1ccccc1)C(=O)C=O [Z-FL-COCHO]
Inhibition rates (%) (MDA-MB-231 cells; 0.4 nM, MDA-MB-231 invasion, 5% FBS, 18 hours): 34.36 ± 3.00 %
Inhibition rates (%) (MDA-MB-231 cells; 2 nM, MDA-MB-231 invasion, 5% FBS, 18 hours): 44.67 ± 2.61 %
Inhibition rates (%) (MDA-MB-231 cells; 10 nM, MDA-MB-231 invasion, 5% FBS, 18 hours): 50.12 ± 2.76 %
invasion of MDA-MB-231 cells (in words) (MDA-MB-231 cells): decreased invasion of the cells
